Activity calls are given as the source filed them.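 How the source made its calls: active means compounds giving half or more protection of infected cells from virus-caused growth loss, again on retest; inactive means the rest.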 Where a SMILES comes first, the peptide text is derived from it. The star is where a group is joined. Myristoyl = CCCCCCCCCCCCCC(=O)*
Tested on: CEM cells HIV-1 protection, formazan growth assay
Test: NCI AIDS Antiviral Assay
Details: for IC50: measured here: growth of uninfected CEM cells
In short: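 Protection of CEM cells against HIV-1 measured as cell growth via soluble formazan read-out, with five concentrations tested on both infected and uninfected cells; failure to protect may reflect toxicity.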

SMILES	EC50 [µM]	IC50 [µM]	outcome
CC1OC(OC2C(OC(=O)[C@]34CCC(C)(C)CC3C3=CCC5[C@@]6(C)C[C@H](O)[C@H](OC7OC(COC8OC(CO)C(O)C(O)C8O)C(O)C(O)C7O)[C@@](C)(C(=O)O)C6CC[C@@]5(C)C3(C)CC4)OCC(O)C2O)C(O)C(O)C1OC1OCC(O)C(O)C1O (some centres undefined)	> 110	> 110	–
C=CC/C=C/C/C=C/CCCCCCCc1cccc(O)c1C(=O)O	> 105	56.2	–
CCOC(=O)COc1ccc(C[C@H](NC(=O)O[C@H]2CCOC2)[C@H](O)CN(CC(C)C)S(=O)(=O)c2ccc(N)cc2)cc1	0.0589	64.6	–
COc1ccc(-c2cc(=O)c3c(OC)c(OC)c(OC)c(OC)c3o2)cc1	> 120	110	–
CC(C)(C)OC(=O)N1Cc2cc(O)ccc2C[C@H]1C(=O)O	> 200	> 200	–
Cc1ccc(S(=O)(=O)NCCSS(=O)(=O)c2ccc(C)cc2)cc1	> 25.7	> 25.7	–
COc1ccc(C2C(Cl)C(=O)N2NC(=O)c2ccc(NC(C)=O)cc2)cc1 (centres undefined)	> 200	> 200	–
O=C1c2ccccc2C2CC1c1ccccc12 (centres undefined)	> 214	> 200	–
CC1=NC2(CCCCC2)N(Cl)C(=O)C1SC#N (centres undefined)	> 200	17.8	–
Cc1ccc(S(=O)(=O)OCC23CCC(C2)C2CC23)cc1 (centres undefined)	> 100	> 100	–
CCCCc1c2c(nc3c1CC/C(=C\c1ccccc1)C3=O)CCCC2	> 4.17	3.31	–
CCCCCCCCCCCCCC(=O)NCC(=O)NC(C)C(=O)NC(CCCNC(=N)N)C(=O)NC(C)C(=O)NC(CO)C(=O)NC(C(=O)NC(CC(C)C)C(=O)NC(CO)C(=O)NCC(=O)NCC(=O)NC(CCC(=O)O)C(=O)NC(CC(C)C)C(=O)NC(CC(=O)O)C(=O)NC(CCCNC(=N)N)C(=O)NC(Cc1c[nH]c2ccccc12)C(=O)NC(Cc1ccc(O)cc1)C(N)=O)C(C)C (centres undefined) (Myristoyl-GARASVLSGGELDRWY-NH2; configuration not given here)	> 129	> 129	–
O=S(=O)(O)CCN(CCO)CCO	> 200	> 200	–
CCC(C)[C@H](NC(=O)[C@H](Cc1ccccc1)NC(=O)N(CC)c1ccccc1)C(=O)N[C@@H](CC(C)C)C(=O)OC (some centres undefined)	–	–	inactive
CS(=O)(=O)NNS(=O)(=O)c1ccc2ccccc2c1	> 224	> 224	–
FC1=C2CCCCCC2SC1(F)F (centres undefined)	> 200	32.4	–
O=S(=O)(O)c1cc(N=Nc2ccc(O)c3ccccc23)ccc1/C=C/c1ccc(N=Nc2ccc(O)c3ccccc23)cc1S(=O)(=O)O	13.5	50.1	–
O=c1[nH]c2cc(C(F)(F)F)ccc2nc1Cc1ccccc1	> 200	> 200	–
C=CCN1CCC(OC(=O)C(O)(C#CC)C2CCCC2)CC1 (centres undefined)	> 200	> 200	–
COc1cc(OC)c2c(=O)c3cccc(O)c3oc2c1	> 200	> 200	–
Nc1ncnc2c1ncn2C1OC(CO)C(O)C(O)C1O (centres undefined)	> 200	> 200	–

SMILES	EC50 [µM]	IC50 [µM]	outcome
CCOC(=O)NNP(=O)(NNC(=O)OCC)c1ccccc1	> 110	> 110	–
CCOCc1c(C(=O)NCCO)[n+](=O)c2ccccc2n1[O-]	> 44.7	> 44.7	–
COc1ccc(NC(=O)C2C(=O)N(c3ccc(OC)cc3)C(=O)/C2=N\NC(N)=O)cc1 (centres undefined)	> 61.7	> 61.7	–
CCCOC(=O)NC(C)C(=O)NC(CCC(=O)NC(CCCC(N)C(=O)O)C(=O)NC(C)C(=O)O)C(=O)O (centres undefined)	> 50.1	> 50.1	–
CCCCCCCCNC(=O)/C(=C\c1ccc2c(c1)OCO2)NC(=O)c1ccccc1	> 58.9	45.7	–
ClC(Cl)=C1C(=C(Cl)Cl)C(Cl)(Cl)C1(Cl)Cl	> 52.5	2.82	–
CC(=O)OC1O[C@@H](C(C)(C)O)CC[C@@H]1[C@H]1CC[C@@]2(C)C3=C(CC[C@]12C)[C@@]1(C)C[C@@H](OC(=O)CC(C)(O)CC(=O)O)[C@H](OC(C)=O)C(C)(C)C1CC3 (some centres undefined)	> 200	105	–
CN(C)c1nc2nonc2nc1Nc1ccccc1	> 200	> 200	–
CCN(CC)CCC(=O)c1ccc(C)cc1	> 6170	331	–
CCCCN1C(=N)C2(C#N)C(CCC)C(CC)C1C2(C#N)C#N (centres undefined)	> 200	158	–
CCCOC(C(=O)OC1CCC2CCC1N2C)(c1ccccc1)c1ccccc1 (centres undefined)	> 200	28.8	–
COC(=O)c1ccccc1/C=C1\Cc2c(ccc3c2CCC3)C1=O	> 151	> 151	–
Cc1cc2c(cc1C)NC(C)CC(=O)N2 (centres undefined)	> 200	> 200	–
Cc1ccc(S(=O)(=O)c2ccc(O)cc2)cc1	> 200	129	–
N/N=C1/C2CN3CCN(C2)CC1(c1ccc([N+](=O)[O-])cc1)C3	> 200	> 200	–
[O-][n+]1c(CCl)nc2ccccc2c1-c1ccccc1F	> 34.7	> 34.7	–
O=C(NC(Cl)(C(F)(F)F)C(F)(F)F)c1ccc(F)cc1	> 200	> 200	–
Oc1nc2nc[nH]n2c1N=Nc1ccccc1	> 200	> 200	–
Nc1ccc(OCC(O)N2C(=O)c3ccccc3C2=O)cc1 (centres undefined)	> 200	> 200	–
Cc1cc2nc3c4ccccc4scc-3c2cc1C	> 200	0.324	–
COc1cc(C(=O)/C=C/c2ccc(OCC#N)cc2)cc(OC)c1OC	> 200	29.5	–

SMILES	EC50 [µM]	IC50 [µM]	outcome
CC(C)(C)OC(=O)NC1CCCC1C(=O)C1=CCCC1 (centres undefined)	> 200	105	–
CCOC(=O)c1ccc(Nc2cnc3ccc(C(F)(F)F)cc3n2)cc1	> 200	10.7	–
C=C(C)[C@@]1(O)CCCC[C@@H]1CC(Sc1ccccc1)Sc1ccccc1	> 200	19.1	–
Cc1c2cc[nH]c(=O)c2cc2c(=O)c3cnccc3[nH]c12	> 1.95	> 1.95	–
COc1cc(N(CCC#N)CCC#N)ccc1/C(N=Nc1ccc([N+](=O)[O-])cc1)=N/NC(=O)c1cc(Br)ccc1O	> 200	33.1	–
Cc1ccc(NC(=O)c2ccccc2)c(=O)o1	> 200	> 200	–
CC(=O)OCC1OC(SC2OC(COC(C)=O)C(OC(C)=O)C(OC(C)=O)C2OC(C)=O)C(OC(C)=O)C(OC(C)=O)C1OC(C)=O (centres undefined)	97.7	> 200	–
CC(C)N(C(=O)C12C3C4C1C1C2C3C41C(=O)N(C(C)C)C(C)C)C(C)C (centres undefined)	> 72.4	> 72.4	–
O=C(Nc1ccc(Cl)cc1)Nc1ccc(Cl)c(Cl)c1	> 200	2.95	–
CC(C)=C1CCC(C)C/C1=N\NC(N)=S (centres undefined)	> 200	19.5	–
CS/C(=N/N=C/c1ccc2ccccc2n1)SS/C(=N/N=C\c1ccc2ccccc2n1)SC	> 200	178	–
COc1ccc(C2=Nc3ccccc3NC(=O)C2)cc1	> 37.2	> 37.2	–
O=C1CCC2CCC1C2 (centres undefined)	> 200	> 200	–
Cc1nc(C(N)=S)sc1C(=O)C/C(=N/N)C(=O)Nc1ccc(Cl)cc1	> 240	> 240	–
CO/N=C\c1c2c(O)c3c(O)c(C)c4c(c3c1O)C(=O)C(C)(O/C=C\C(OC)C(C)C(OC(C)=O)C(C)C(O)C(C)C(O)C(C)/C=C\C=C(\C)C(=O)N2)O4 (centres undefined)	> 151	15.8	–
NC(Cc1ccc(O)cn1)C(=O)O (centres undefined)	> 200	> 200	–
Cc1cc2c(cc1-c1cc3c(cc1C)C(C(C)C)=C(O)C(=O)/C3=C\Nc1ccccn1)/C(=C/Nc1ccccn1)C(=O)C(O)=C2C(C)C	> 100	45.7	–
CCOC(=O)/C(Cc1cc(=O)n(C)c2ccccc12)=N\Nc1ccccc1	> 200	> 200	–
COC1/C=C/OC2(C)Oc3c(C)c(O)c4c(O)c(cc(OCC(=O)N(C)C(C)C)c4c3C2=O)NC(=O)/C(C)=C/C=C/C(C)C(O)C(C)C(O)C(C)C(OC(C)=O)C1C (centres undefined)	> 200	38	–
CCc1nnc2n1N=C(c1ccc(-c3ccccc3)cc1)CS2	> 200	11.5	–
CCOC(=O)C(C(O)c1ccc([N+](=O)[O-])cc1)P(=O)(OCC)OCC (centres undefined)	> 661	93.3	–

SMILES	EC50 [µM]	IC50 [µM]	outcome
c1ccc([P+](c2ccccc2)(c2ccccc2)C2c3ccccc3-c3ccccc32)cc1	> 200	10.7	–
Clc1ccc(CCn2cncn2)c(Cl)c1	> 891	437	–
CC1C2=C(CN3C[C@H](C)CCC13)C1CC3C(C[C@@H](O)C4C[C@@H](O)CC[C@]34C)C1CC2 (some centres undefined)	> 22.9	> 22.9	–
CCOC(=O)c1nc2cc(N3CCOCC3)c(F)cc2[nH]c1=O	> 200	141	–
O=S(Cc1cnc2ccccc2c1)c1nc2ccccc2nc1-c1cccs1 (centres undefined)	> 6.76	> 6.76	–
CN(c1ccc(Cl)cc1)S(=O)(=O)c1ccccc1[N+](=O)[O-]	> 200	24.5	–
CC(=O)CC(C)=O.CCN(CC)CC[C-]=O.[Pd+2]	> 200	5.89	–
COc1cc2c(cc1O)[C@H](C)C(c1ccc(Cl)cc1)O2 (some centres undefined)	> 64.6	33.1	–
CN(C)C(=S)/N=c1\sn(C)/c(=N\C(=S)N(C)C)n1C	–	–	inactive
CC1(Br)OC(=O)C(C)(Br)OC1=O (centres undefined)	> 200	> 200	–
COc1ccc(CC(=O)c2cc(OC)c(OC)cc2C)cc1OC	> 398	30.9	–
Cc1c(C)n2c(=O)n(-c3ccccc3)c(=O)n2c1=O	> 977	617	–
CCOC(=O)C(NC(=O)NCc1ccc(F)cc1)C(F)(F)F (centres undefined)	> 200	81.3	–
O=C(O)CCNc1ccc2c(c1)B(O)OC2	> 692	> 692	–
O=c1[nH]c(-c2ccccc2)nc2c1sc1nc3ccccc3n12	> 50.1	> 50.1	–
CC(/C=C/c1ccccc1)=N\NC(=S)N/N=C(C)/C=C/c1ccccc1	> 200	4.07	–
C=C1CC[N+]2(CCCCCC)CCCC12 (centres undefined)	> 871	126	–
O=S1(=O)C=C2CCCCC21 (centres undefined)	> 1580	> 1580	–
COc1ccc2cc(Oc3ccc(Cl)cc3)c(=O)oc2c1	> 200	> 200	–
CC(C)CC(NC(=O)C(CI)Cc1ccccc1)C(=O)Nc1ccccc1 (centres undefined)	> 100	> 100	–
